A word on the pIC50: it is the IC50 on a negative log10 scale, so that one unit is a factor of ten. By melting point is commonly meant the temperature, or range, at which the solid turns liquid.

In PMC9414972, “α-Glucosidase and α-Amylase Inhibitory Potentials of Quinoline–1,3,4-oxadiazole Conjugates Bearing 1,2,3-Triazole with Antioxidant Activity, Kinetic Studies, and Computational Validation” (Pharmaceuticals, 2022) one finds IC50 and melting point data, which are given here for 16 compounds.

pIC50: −log10 of the molar value.

The target in one series is T1, α-glucosidase (Saccharomyces cerevisiae, UniProt P38158).
T1 construct: purchased Merck
As to the kind of experiment: biochemical. Conditions: pNPG substrate, pH 6.8, 37 °C; read-out: IC50 α-Glucosidase. The procedure:
The α-glucosidase inhibitory activity was evaluated using a previous method with slight modifications.

Series [1] deals with T2, porcine pancreatic amylase (Sus scrofa, UniProt P00690).
T2 construct: purchased Merck
T2 sequence (P00690 16-511): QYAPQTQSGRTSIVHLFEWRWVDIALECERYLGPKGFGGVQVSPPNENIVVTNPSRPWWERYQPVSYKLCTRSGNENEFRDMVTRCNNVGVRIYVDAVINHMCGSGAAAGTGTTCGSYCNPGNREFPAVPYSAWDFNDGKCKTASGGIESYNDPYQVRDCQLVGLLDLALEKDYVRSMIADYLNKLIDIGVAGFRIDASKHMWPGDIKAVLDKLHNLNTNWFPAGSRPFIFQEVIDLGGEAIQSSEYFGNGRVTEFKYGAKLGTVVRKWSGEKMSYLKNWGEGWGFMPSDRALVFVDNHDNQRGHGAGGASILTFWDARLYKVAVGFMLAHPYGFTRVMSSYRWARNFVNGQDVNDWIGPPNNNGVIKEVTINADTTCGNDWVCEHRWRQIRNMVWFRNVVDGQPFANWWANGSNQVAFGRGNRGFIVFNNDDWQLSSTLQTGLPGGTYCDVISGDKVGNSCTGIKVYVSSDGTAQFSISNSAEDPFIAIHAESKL
As to the kind of experiment: α-Amylase inhibitory activity (starch/DNS). The following applies: porcine pancreatic amylase, starch, pH 6.9, 25 °C; read-out: IC50 α-Amylase. The class given is biochemical. On the procedure: α-Amylase inhibitory activity was determined according to Ibitoye et al. with slight modifications. […] The reaction in the mixture was terminated with a 1 mL dinitrosalicylate reagent before boiling for 10 min. The cooled mixture was diluted with 5 mL distilled water, and the absorbance was read at 540 nm. The inhibitory activity was calculated using the formula below: % Inhibition=1−Absorbance of compound/Absorbance of control×100

Series [2] in a line: Nitric oxide (NO) scavenging activity. The following applies: nitric oxide radical scavenging, 37 °C, 2 h. The procedure: The screening of the present compound series for NO radical scavenging activity (Table 2) identified excellent NO scavengers.
The antioxidant capacity of the compounds to scavenge nitric oxide radicals was determined using a modified version of the protocol by Kurian et al.. Briefly, 250 μL of sodium nitroprusside (10 mM) prepared in sodium phosphate buffer (pH 7.4) was added to 500 μL of the compound solution (62.5–500 μM) or distilled water (control). The resulting solution was incubated at 37 °C for 2 h. Then, 250 μL of Griess reagent was added to the reaction mixture before the absorbance was measured at 546 nm. The nitric oxide scavenging activity of the compounds was calculated with the formula: Nitric oxide scavenging (%)=1−Absorbance of compound/Absorbance of control×100

Series [3] in a line: Ferric reducing antioxidant power (FRAP). The following applies: ferric reducing antioxidant power. The procedure:
FRAP is a ferric (Fe^3+) to ferrous (Fe^2+) ions reduction assay that measures a compound’s electron-donating capacity, i.e., the antioxidant’s reducing power.
The mixture was incubated at 50 °C for 20 min, followed by acidification with 100 μL trichloroacetic acid (10%). After centrifugation at 3500 rpm for 10 min, 200 μL of the supernatant was transferred into another test tube containing 200 μL of distilled water and 0.8 mL of FeCl3 (0.1%). Finally, the absorbance was read at 700 nm, and the total reductive antioxidant power was calculated thus: Ferric reducing antioxidant power (%)=Absorbance of compound/Absorbance of 500µM gallic acid×100

The nature of series [4]: DPPH radical scavenging activity. Conditions: DPPH radical scavenging, 30 min, 25 °C. The procedure:
The DPPH assay is used conventionally to quantify a compound’s ability to trap free radicals.
The compounds were evaluated for their ability to scavenge stable DPPH radicals, using a modification of the method by Turkoglu et al..
For orientation: DPPH is a stable violet radical that fades when it is reduced.

T1 sequence (P38158 whole entry): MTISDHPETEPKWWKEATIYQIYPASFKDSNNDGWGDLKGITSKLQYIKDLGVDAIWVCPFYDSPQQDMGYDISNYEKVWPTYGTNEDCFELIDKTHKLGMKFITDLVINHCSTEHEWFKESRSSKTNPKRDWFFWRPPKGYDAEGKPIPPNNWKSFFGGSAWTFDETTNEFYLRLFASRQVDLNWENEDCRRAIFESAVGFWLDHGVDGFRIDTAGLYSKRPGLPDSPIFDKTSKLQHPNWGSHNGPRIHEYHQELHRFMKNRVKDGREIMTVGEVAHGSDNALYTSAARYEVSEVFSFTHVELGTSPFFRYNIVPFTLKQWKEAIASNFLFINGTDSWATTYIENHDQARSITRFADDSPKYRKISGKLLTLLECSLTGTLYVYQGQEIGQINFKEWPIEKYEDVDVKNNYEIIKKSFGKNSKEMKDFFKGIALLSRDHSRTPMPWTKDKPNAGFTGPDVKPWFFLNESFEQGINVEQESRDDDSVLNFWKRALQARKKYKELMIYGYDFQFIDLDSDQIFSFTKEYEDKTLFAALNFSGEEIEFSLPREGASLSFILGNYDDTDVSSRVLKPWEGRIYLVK

As for `CCCCCn1cc(CSc2nnc(COc3cccc4cccnc34)o2)nn1` [12a], the melting point lay within 90 to 94 °C. Moreover, the pIC50 at α-glucosidase was 4.45. Moreover, in series [1], the pIC50 was under 3.30. Also, the pIC50 in series [2] was under 3.30. This compound also had a pIC50 in series [3] of under 3.30. In addition, the pIC50 in series [4] is 4.05.

The compound `c1ccc(Cn2cc(CSc3nnc(COc4cccc5cccnc45)o3)nn2)cc1` [12c, 2-{[(1-Benzyl-1H-1,2,3-triazol-4-yl)methyl]thio}-5-[(quinolin-8-yloxy)methyl]-1,3,4-oxadiazole] displayed a melting point of 68 to 71 °C. In addition, the pIC50 on α-glucosidase is 4.33. For the same compound, the pIC50 in series [1] was under 3.30. In series [2], this compound showed a pIC50 of under 3.30. The pIC50 in series [3] is under 3.30. Besides, the pIC50 in series [4] is 4.10.

In turn, `Clc1ccc(Cn2cc(CSc3nnc(COc4cccc5cccnc45)o3)nn2)cc1` [12d, 2-{[(1-(4-Chlorobenzyl)-1H-1,2,3-triazol-4-yl)methyl]thio}-5-[(quinolin-8-yloxy)methyl]-1,3,4-oxadiazole] yielded a melting point of 92 to 96 °C. The pIC50 at α-glucosidase is 4.42. The pIC50 in series [1] was under 3.30. The same compound had a pIC50 in series [2] of under 3.30. Also, the pIC50 in series [3] is under 3.30. The pIC50 in series [4] is 4.09.

Compound `Fc1ccc(Cn2cc(CSc3nnc(COc4cccc5cccnc45)o3)nn2)cc1` [12e, 2-{[(1-(4-Fluorobenzyl)-1H-1,2,3-triazol-4-yl)methyl]thio}-5-[(quinolin-8-yloxy)methyl]-1,3,4-oxadiazole] had a melting point of 96 to 101 °C. The pIC50 on α-glucosidase was 4.41. In addition, in series [1], the pIC50 is under 3.30. This compound also showed a pIC50 in series [2] of under 3.30. The compound further showed a pIC50 in series [3] of under 3.30. In series [4], the negative-log IC50 (pIC50) is 4.03.

The compound `Brc1ccc(Cn2cc(CSc3nnc(COc4cccc5cccnc45)o3)nn2)cc1` [12f, 2-{[(1-(4-Bromobenzyl)-1H-1,2,3-triazol-4-yl)methyl]thio}-5-[(quinolin-8-yloxy)methyl]-1,3,4-oxadiazole] yielded a melting point of 78 to 82 °C. Further, on α-glucosidase, the pIC50 is 4.25. For the same compound, in series [1], the pIC50 was under 3.30. The pIC50 in series [2] is 3.32. The pIC50 in series [3] was under 3.30. For the same compound, in series [4], the pIC50 was 4.04.

Compound `O=[N+]([O-])c1ccc(Cn2cc(CSc3nnc(COc4cccc5cccnc45)o3)nn2)cc1` [12g, 2-{[(1-(4-Nitrobenzyl)-1H-1,2,3-triazol-4-yl)methyl]thio}-5-[(quinolin-8-yloxy)methyl]-1,3,4-oxadiazole] yielded a melting point of 100 to 106 °C. Besides, the pIC50 on α-glucosidase was 4.33. In addition, in series [1], the pIC50 was under 3.30. This compound had a pIC50 in series [2] of 5.52. The pIC50 in series [3] was under 3.30. This compound showed a pIC50 in series [4] of 4.09.

Regarding `Clc1cccc(Cn2cc(CSc3nnc(COc4cccc5cccnc45)o3)nn2)c1` [12h, 2-{[(1-(3-Chlorobenzyl)-1H-1,2,3-triazol-4-yl)methyl]thio}-5-[(quinolin-8-yloxy)methyl]-1,3,4-oxadiazole], the melting point fell in the range of 78 to 84 °C. On α-glucosidase, the pIC50 is 4.20. For the same compound, the pIC50 in series [1] was under 3.30. The compound further had a pIC50 in series [2] of under 3.30. This compound also had a pIC50 in series [3] of under 3.30. The same compound showed a pIC50 in series [4] of 4.04.

Take `Clc1ccc(Cn2cc(CSc3nnc(COc4cccc5cccnc45)o3)nn2)c(Cl)c1` [12i, 2-{[(1-(2,4-Dichlorobenzyl)-1H-1,2,3-triazol-4-yl)methyl]thio}-5-[(quinolin-8-yloxy)methyl]-1,3,4-oxadiazole]: the melting point lay in the range of 124 to 130 °C. Moreover, the pIC50 at α-glucosidase is 4.37. Further, in series [1], the pIC50 was under 3.30. This compound also gave a pIC50 in series [2] of under 3.30. For the same compound, the pIC50 in series [3] is under 3.30. Further, in series [4], the pIC50 was 4.02.

The compound `Clc1ccc(-n2cc(CSc3nnc(COc4cccc5cccnc45)o3)nn2)cc1` [12l, 2-{[(1-(4-Chlorophenyl)-1H-1,2,3-triazol-4-yl)methyl]thio}-5-[(quinolin-8-yloxy)methyl]-1,3,4-oxadiazole] had a melting point of 132 to 136 °C. At α-glucosidase, the pIC50 was 4.42. Moreover, the pIC50 in series [1] was under 3.30. Moreover, in series [2], the pIC50 is under 3.30. Besides, in series [3], the pIC50 was under 3.30. In series [4], this compound showed a pIC50 of 4.09.

For the compound `Brc1ccc(-n2cc(CSc3nnc(COc4cccc5cccnc45)o3)nn2)cc1` [12n, 2-{[(1-(4-Bromophenyl)-1H-1,2,3-triazol-4-yl)methyl]thio}-5-[(quinolin-8-yloxy)methyl]-1,3,4-oxadiazole], the melting point was in the range of 126 to 132 °C. For the same compound, the pIC50 on α-glucosidase is 4.45. Besides, the pIC50 in series [1] was under 3.30. The compound further had a pIC50 in series [2] of under 3.30. Besides, the pIC50 in series [3] was under 3.30. The compound also showed a pIC50 in series [4] of 4.04.

Compound `O=[N+]([O-])c1ccc(-n2cc(CSc3nnc(COc4cccc5cccnc45)o3)nn2)cc1` [12o, 2-{[(1-(4-Nitrophenyl)-1H-1,2,3-triazol-4-yl)methyl]thio}-5-[(quinolin-8-yloxy)methyl]-1,3,4-oxadiazole] returned a melting point of 150 to 156 °C. The pIC50 at α-glucosidase is 4.42. For the same compound, the pIC50 in series [1] is under 3.30. In addition, the pIC50 in series [2] is under 3.30. This compound also had a pIC50 in series [3] of under 3.30. The pIC50 in series [4] is 4.05.

In turn, `Cc1ccc(-n2cc(CSc3nnc(COc4cccc5cccnc45)o3)nn2)cc1` [12p, 2-[(Quinolin-8-yloxy)methyl]-5-{[(1-(p-tolyl)-1h-1,2,3-triazol-4-yl)methyl]thio}-1,3,4-oxadiazole] registered a melting point of 78 to 80 °C. The pIC50 at α-glucosidase is 4.36. The pIC50 in series [1] is 3.31. Moreover, in series [2], the pIC50 is under 3.30. The compound also showed a pIC50 in series [3] of under 3.30. For the same compound, the pIC50 in series [4] is 4.02.

As to `COc1ccc(-n2cc(CSc3nnc(COc4cccc5cccnc45)o3)nn2)cc1` [12q, 2-{[(1-(4-Methoxyphenyl)-1H-1,2,3-triazol-4-yl)methyl]thio}-5-[(quinolin-8-yloxy)methyl]-1,3,4-oxadiazole], the melting point lay in the range of 122 to 128 °C. In addition, on α-glucosidase, the pIC50 was 4.21. Also, the pIC50 in series [1] was under 3.30. In series [2], this compound had a pIC50 of under 3.30. The same compound gave a pIC50 in series [3] of under 3.30. In series [4], this compound showed a pIC50 of 4.01.

`Clc1ccc(-n2cc(CSc3nnc(COc4cccc5cccnc45)o3)nn2)c(Cl)c1` [12r, 2-{[(1-(2,4-Dichlorophenyl)-1H-1,2,3-triazol-4-yl)methyl]thio}-5-[(quinolin-8-yloxy)methyl]-1,3,4-oxadiazole]: the melting point fell in the range of 112 to 116 °C. Further, at α-glucosidase, the pIC50 was 4.31. The pIC50 in series [1] was under 3.30. Further, the pIC50 in series [2] was under 3.30. The same compound showed a pIC50 in series [3] of under 3.30. The compound further had a pIC50 in series [4] of 4.00.

Take `Clc1cccc(Cl)c1-n1cc(CSc2nnc(COc3cccc4cccnc34)o2)nn1` [12s, 2-{[(1-(2,6-Dichlorophenyl)-1H-1,2,3-triazol-4-yl)methyl]thio}-5-[(quinolin-8-yloxy)methyl]-1,3,4-oxadiazole]: the melting point is 113 to 118 °C. Besides, the pIC50 on α-glucosidase is 4.41. Moreover, in series [1], the pIC50 was under 3.30. In series [2], the pIC50 is under 3.30. In series [3], the pIC50 was under 3.30. This compound also showed a pIC50 in series [4] of 4.07.

With `Cc1cccc(C)c1-n1cc(CSc2nnc(COc3cccc4cccnc34)o2)nn1` [12t, 2-{[(1-(2,6-Dimethylphenyl)-1H-1,2,3-triazol-4-yl)methyl]thio}-5-[(quinolin-8-yloxy)methyl]-1,3,4-oxadiazole], the melting point was 110 to 116 °C. On α-glucosidase, the pIC50 was 4.36. Besides, the pIC50 in series [1] is under 3.30. Also, in series [2], the pIC50 was under 3.30. In series [3], the pIC50 was under 3.30. Further, in series [4], the pIC50 is 4.05.
